We go through 95 molecules from PubChem BioAssay AID602234 (The Scripps Research Institute Molecular Screening Center, 2012).

pIC50: −log10 of the molar value. Activity calls are given as the source filed them. The rule behind the calls is not given here. Bounds are passed on as bounds.

A short description of the experiment: SRC3 coactivator transcriptional activity inhibitors, dose response, counter-screen for SRC1 inhibitor project, cell-based, luminescence (AID 602234).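 Note: HEK293 cells co-transfected with pGL4.31 reporter and pBIND-SRC3 fusion vector; potency for inhibition of reporter luminescence with Gossypol as full inhibition.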 The following applies: transfected HEK293 cells, counter-screen luciferase reporter. On the technique in general: Counterscreens check selectivity or assay interference.
What is called pIC50 is −log10 of the IC50, conventionally taken in molar units. `O=C(NC(NC(=S)N1CCOCC1)C(Cl)(Cl)Cl)c1ccc(Cl)cc1` (stereo not given): the pIC50 was 5.40. On the same count and under the same terms, for `O=C(COC(=O)c1ccc[nH]c1=O)Nc1ccc(N2CCCCC2)cc1` the value was 5.27; for `Nc1ccc(Oc2ccccc2-c2ccccc2)cc1`, 5.13.

A word on the IC50: it is the concentration at which inhibition is half-maximal. In the case of `Cc1c(C(=O)N/N=C/C(C)C)[nH]c2ccc([N+](=O)[O-])cc12`, the IC50 is 17 µM (inactive).

With `Cc1c(/C(O)=C2/C(=O)C(=O)N(Cc3cccnc3)C2c2ccccn2)cnn1-c1ccccc1` (stereo not given), the negative-log IC50 (pIC50) was 5.18. On the same count and under the same terms, for `COc1cccc(/C=N/NC(=O)CNC(=O)C2COc3ccccc3O2)c1O` (stereo not given) the value was 5.37; for `COc1ccccc1NS(=O)(=O)c1cccc(NC(=O)c2cncc(Br)c2)c1`, 5.11; for `Cc1ccc2nc(C(F)(F)F)c(C#N)c(N)c2c1`, 5.29.

In the case of `CC(C)n1c(SCC(=O)Nc2nc3c(s2)CCCC3)nc2c1c(=O)n(C)c(=O)n2C`, the pIC50 is 5.23.

For `COc1ccc(OC)c(/C=C2\NC(=O)NC2=O)c1`, the pIC50 was 5.22. On the same count and under the same terms, as for `CNc1cccnc1C=NNC(N)=S`, the figure is 6.28; as for `CN(C)c1ccc(Nc2ncnc3ccc(Br)cc23)cc1`, 5.68.

For `Cc1ccc(S(=O)(=O)N2[C@@H](c3ccc(C(C)(C)C)cc3)C(C(=O)O)=CC[C@H]2c2ccc(Cl)cc2)cc1`, the IC50 is 10.4 µM (inactive). Still for that read-out and setting: for `COC(=O)N(NC(=O)C(O)(CCC(C)C)CCC(C)C)c1ccccc1` the value was > 35.9 µM (inactive). As to `CCOc1cccc(/C=N/NC(=O)c2cccnc2)c1O`, the pIC50 is 5.01. Still for that read-out and setting: for `O=C(Nc1cccc2c1CCCC2)c1cc([N+](=O)[O-])ccc1Cl` the value was 5.46. On the same count and under the same terms, for `Cc1cc(/C=C2\Cc3ccccc3C2=O)c(C)n1-c1ccccc1` the value was 5.06.

As to `COc1ccc(-c2cc(=O)oc3c(C)c(O)c(CN(C)C)cc23)cc1`, the IC50 is 12.1 µM (inactive). Same read-out and setting: as for `CC(C)(C)OC(=O)NCC(=O)Oc1cc2oc(=O)cc(-c3ccccc3)c2cc1Cl`, the figure is 11.5 µM (inactive). Regarding `CCN(c1ccccc1)S(=O)(=O)c1cc(C(=O)Nc2ccc(Br)cc2)ccc1F`, the pIC50 is 5.18. Turning to `CCOc1cccc(/C=N/NC(=O)c2cc(C3CC3)[nH]n2)c1O`, the IC50 was 14.8 µM (inactive). Still for that read-out and setting: for `O=C(CSc1nc(-c2cccs2)cc(C(F)(F)F)n1)Nc1cc(OCC(F)(F)C(F)F)cc([N+](=O)[O-])c1` the value was > 35.9 µM (inactive). As to `S=C(c1ccc(-c2ccccc2)cc1)N1CCOCC1`, the pIC50 was 5.12. As for `COc1ccc(-n2cnc(N)c2C(=O)c2cccc([N+](=O)[O-])c2)cc1`, the pIC50 is 5.41. Same read-out and setting: as for `O=[N+]([O-])c1ccc(N(CCO)CCO)c2c1no[n+]2[O-]`, the figure is 5.19; as for `NC(=S)NN=Cc1nccc2ccccc12`, 6.36.

In the case of `O=C(NC(=S)Nc1ccc(N2CCN(C(=O)c3ccccc3)CC2)cc1)c1cccs1`, the negative logarithm of the IC50 (pIC50) was 5.15. Regarding `O=C(CCn1cnc(-c2ccccc2)c1-c1ccccc1)N/N=C/c1ccccc1O`, the IC50 was 12.2 µM (inactive). For the molecule `Cn1c(=O)c2[nH]c(COc3ccc(C(C)(C)C)cc3)nc2n(C)c1=O`, the negative-log IC50 (pIC50) was 5.41. For `COc1cccc(/C=N/NC(=O)C(=O)Nc2ccccc2OC(F)(F)C(F)F)c1O`, the pIC50 is 5.25.

In the case of `CC(C)Cn1c(N)c(C(=O)COC(=O)c2cc3ccccc3cc2O)c(=O)n(C)c1=O`, the IC50 is > 12 µM (inactive). For the molecule `CC(=O)NC(c1cc(Cl)c2cccnc2c1O)C1CC1` (stereo not given), the pIC50 is 5.21. On the same count and under the same terms, for `CC(C)n1c(-c2cccnc2)nc2cnccc21` the value was 5.28; for `c1ccc(-c2nnc(-c3ccccn3)nc2NC2CCCCC2)cc1`, 5.54. Still for that read-out and setting: for `COc1cc2c(cc1OC)C(C)N(C(=O)c1cccc([N+](=O)[O-])c1)CC2` (stereo not given) the value was 5.14.

On to `Cc1ccc(OCC(=O)c2cc(C)n(-c3ccccc3)c2C)c([N+](=O)[O-])n1`, for which the pIC50 was 5.61. The same measure, in the same setting: for `O=C(N/N=C/c1ccccc1O)/C(=C/c1ccccc1)CCO` the value was 5.26. In the case of `CCn1c2ccccc2c2cnc(N=CN(C)C)c(C#N)c21`, the IC50 is 11.3 µM (inactive). In the case of `O=C(CCC(=O)Nc1ccc(Br)cc1)N/N=C/c1ccccc1O`, the pIC50 is 5.36. The same measure, in the same setting: as for `CC(=O)C1=C(C)NC2=C(C(=O)CC(C)(C)C2)C1C` (stereo not given), the figure is 5.10; as for `Nc1ccc(-c2cc3ccccc3oc2=O)cc1`, 5.44. As to `O=C(O)c1ccccc1-c1c2cc(I)c(=O)c(I)c-2oc2c(I)c(O)c(I)cc12`, the IC50 is > 35.9 µM (inactive). As to `Nc1ccn([C@@H]2O[C@H](CO)[C@@H](O)C2O)c(=O)n1` (stereo not given in full), the pIC50 was 5.12.

In the case of `CCc1nc(N)nc(N)c1-c1ccc(Cl)c([N+](=O)[O-])c1`, the pIC50 is 6.02. Take `O=C(N/N=C/c1cc([N+](=O)[O-])ccc1O)c1cccc(N2CCCC2=O)c1`: the IC50 is > 12 µM (inactive). On to `COc1ccc2[nH]c(=O)c(CN(CCN3CCCC3)C(=O)Nc3ccccc3Cl)cc2c1`, for which the pIC50 is 5.06. On the same count and under the same terms, as for `c1cc2c(cn1)cnc1cscc12`, the figure is 5.35; as for `C=CCOc1ccc(/C=C2\SC(=S)N(CCC(=O)O)C2=O)cc1`, 5.46; as for `Cc1ccc(N=c2c([N+](=O)[O-])nn(-c3ccc4c(c3)OCCO4)n2O)cc1F`, 5.49.

`OCCN(CCO)CC(O)COc1ccc(C23CC4CC(CC(C4)C2)C3)cc1` (stereo not given): the IC50 was 12.1 µM (inactive). In the case of `O=C(N/N=C/c1coc2ccc(Cl)cc2c1=O)c1ccc(O)cc1`, the pIC50 is 5.44. The same measure, in the same setting: as for `COc1cc2c(cc1OC)C(NC(=O)C(F)(F)F)CNC2=O` (stereo not given), the figure is 5.58; as for `Cc1ccc(C)c(NC(=O)c2ccccc2NS(=O)(=O)c2cc([N+](=O)[O-])ccc2C)c1`, 5.84. Regarding `CC1CC(C)C(=NNC(N)=O)C(C(O)CC2CCC(=O)NC2=O)C1` (stereo not given), the pIC50 is 5.10. `O=C(CCC1CCCC1)Nc1ccc(C(=O)NCc2cccnc2)cc1`: the IC50 was 34.2 µM (inactive). On to `O=C(N/N=C(\c1ccccc1)c1ccccn1)c1ccccc1Cl`, for which the pIC50 is 5.34. The same measure, in the same setting: as for `Nc1nc(CCl)nc(Nc2cccc3ccccc23)n1`, the figure is 5.44. Consider `O=C(O)c1ccccc1C(=O)Nc1ccc(Oc2cccc3ccccc23)cc1`, for which the IC50 was > 35.9 µM (inactive). As to `C=CCNc1ncnc2ccc(Br)cc12`, the negative logarithm of the IC50 (pIC50) was 5.64. Turning to `N#Cc1c2ccc(O)cc2n2ccccc12`, the pIC50 is 5.86. With `C=C1C(=O)[C@@]23C[C@H]4[C@@H]5[C@@]6(C)CCC[C@@]57[C@@H]2[C@@H](O)[C@@H]1C[C@H]3[C@H]7N4C6`, the pIC50 was 5.36. Still for that read-out and setting: as for `CCn1ccnc1CN(C)Cc1cn[nH]c1-c1ccc(F)cc1F`, the figure is 5.10. Consider `CC(C)(C)c1cc(C(=O)N/N=C/c2ccc(O)cc2)n(-c2ccccc2)n1`, for which the IC50 is 27.1 µM (inactive). On the same count and under the same terms, as for `COc1ccc2c(C#N)c3ccccn3c2c1`, the figure is 11.2 µM (inactive). For the molecule `CC[C@@]1(O)C(=O)OCc2c1cc1n(c2=O)Cc2cc3c(NC(=O)CN)cccc3nc2-1`, the pIC50 was 5.98. Same read-out and setting: as for `Cc1c(CC(=O)NCCCC(=O)O)c(=O)oc2cc3c(cc12)CCC(C)(C)O3`, the figure is 5.41.

Turning to `Cc1nc2sc(C(N)=O)c(N)c2c(C)c1CC(=O)c1ccccc1`, the negative-log IC50 (pIC50) is 5.58. Regarding `COc1ccc2c(c1)-c1c(ssc1=S)C(C)(C)N2C(=O)CSC1=NCCS1`, the IC50 was 11.2 µM (inactive). In the case of `COc1cc([C@@H]2c3cc4c(cc3[C@@H](O[C@@H]3O[C@@H]5CO[C@@H](C)O[C@H]5[C@H](O)[C@H]3O)[C@H]3COC(=O)[C@H]23)OCO4)cc(OC)c1O`, the pIC50 is 6.43.

In the case of `Cc1cccc(C)c1-n1nnnc1C(c1cccs1)N1CCC2(CC1)C(=O)NCN2c1ccccc1` (stereo not given), the IC50 is 18.9 µM (inactive).

On to `COc1ccc(NC(=O)CN(C)C(=O)C2(c3ccccc3)CCCC2)cc1`, for which the pIC50 is 5.27.

Regarding `NNC(=O)c1cc2ccccc2cc1O`, the pIC50 was 5.80. Consider `COc1ccc(-n2cnc3c(sc4nccc(N(C)C)c43)c2=O)cc1`, for which the IC50 was 11 µM (inactive). The same measure, in the same setting: for `O=C(Nc1nc(-c2ccccn2)cs1)c1cccc(S(=O)(=O)N2CCOCC2)c1` the value was > 12 µM (inactive).

With `CCOc1ccc(/C=C2\SC(=S)N(CCC(=O)O)C2=O)cc1`, the pIC50 is 5.67. Same read-out and setting: for `CCN1CCN(C(=S)c2ccc(-c3ccccc3)cc2)CC1` the value was 5.34.

`Cc1ccc(O)c(Nc2ncnc3ccc([N+](=O)[O-])cc23)c1`: the pIC50 is 5.45. The same measure, in the same setting: as for `CCC(=O)c1ccc(Oc2nc3c(c(=O)n(C)c(=O)n3C)n2CC)cc1`, the figure is 5.54. The same measure, in the same setting: for `COc1cccc(CNc2ncnc3ccc(-c4c(C)noc4C)cc23)c1` the value was 5.00. As to `O=C(Nc1nc(-c2ccccn2)cs1)c1cccc(-n2cnnn2)c1`, the IC50 is 21.7 µM (inactive).

For the molecule `CCc1ccc(/C=C2\SC(=S)N(CCCC(=O)NCCCN3CCOCC3)C2=O)cc1`, the pIC50 was 5.48. As for `O=C(Nc1cccc(Cl)c1)Nc1nnc(-c2ccncc2)s1`, the pIC50 was 5.44.

As to `COC(=O)c1cccc2c1-c1ccccc1/C2=N/O`, the pIC50 was 5.59.

Regarding `COc1ccc(-c2ncncc2-c2ccccc2)c(O)c1`, the pIC50 is 5.37. Same read-out and setting: for `CC1(C)Cc2c(ccc3ccccc23)C(=O)N1` the value was 5.49.

Take `CCc1ccc(-c2nc(CSCC(=O)NCc3ccco3)c(C)o2)cc1`: the negative-log IC50 (pIC50) was 5.19. `Cc1ccc(O)c(C(=O)c2cnn(C(=O)COc3ccc(Cl)cc3)c2)c1`: the negative-log IC50 (pIC50) was 5.10. Still for that read-out and setting: for `CC(=O)c1cccc(NC(=O)COc2cc3oc(=O)c(CC(C)O)c(C)c3cc2Cl)c1` (stereo not given) the value was 5.20; for `CN(Cc1cnc2nc(N)nc(N)c2n1)c1ccc(C(=O)NC(CCC(=O)O)C(=O)O)c2ccccc12` (stereo not given), 7.73.

For the molecule `CCc1c(C)nc2c(C)cccc2c1SCCC#N`, the IC50 was 13.6 µM (inactive).

For the molecule `CC(=O)c1cc2c(C)cc(=O)oc2cc1O`, the IC50 was 11.2 µM (inactive). `CCCCCOc1ccc(/C=C/c2c([N+](=O)[O-])c(=O)n(C)c(=O)n2C)cc1`: the pIC50 is 5.36. Same read-out and setting: for `CNc1ncnc(Sc2nc(N)nc3nc[nH]c23)c1[N+](=O)[O-]` the value was 5.55. On the same count and under the same terms, as for `Cc1ccc(/C=C2\SC(=S)N(CCCC(=O)NC3CCCC3)C2=O)cc1`, the figure is 5.80; as for `CCN(Cc1ccncc1)C(=O)CC1C(=O)NCCN1Cc1ccc(F)c(F)c1` (stereo not given), 5.31.
